Experimental data: US20240000950A1, “THERAPEUTIC CURE-PRO COMPOUNDS FOR TARGETED DEGRADATION OF BET DOMAIN PROTEINS, AND METHODS OF MAKING AND USING THEM” (CORNELL UNIVERSITY, priority 2020, published 2024)

Target: BRD4 (Homo sapiens, UniProt O60885)
Experiment: Summary of E3 ligase directed degradation of BRD4, estimated from Western Blot or WES (Tables 1-6)
Type: cell-based
Parameters: endogenous in cells; host or cells: HeLa, MCF7 or HCT116
Settings: for Degradation of BRD4, combination with VHL ligand [drawing 442]: aromatic 1,2-diol-containing VHL ligand drawn as drawing 442 (by the text apparently 8305); for Degradation of BRD4, combination with CRBN ligand [drawing 421] / Degradation of BRD4, combination with CRBN ligand [drawing 422] / Degradation of BRD4, combination with CRBN ligand [drawing 397]: Table 1; for Degradation of BRD4, combination with CRBN ligand [drawing 421]: CRBN ligand drawn as drawing 421 (by the text apparently 8047); for Degradation of BRD4, combination with CRBN ligand [drawing 422]: CRBN ligand drawn as drawing 422 (by the text apparently 8066); for Degradation of BRD4, combination with CRBN ligand [drawing 397]: aromatic 1,2-diol- or hindered cis-1,2-diol-containing CRBN ligand drawn as drawing 397 (by the text apparently 8046); for Degradation of BRD4, combination with MDM2 ligand [drawing 431]: Table 2, aromatic 1,2-diol-containing MDM2 ligand drawn as drawing 431 (by the text apparently 8314); for Degradation of BRD4, combination with CRBN ligand [drawing 457]: Table 4, aryl-boronic acid-containing CRBN ligand drawn as drawing 457 (by the text apparently 8048)
Procedure: HeLa, MCF7, or HCT116 cells (2.5-3×10^6) were treated for 24 hours with the indicated compounds solubilized in DMSO. The cells were washed in ice-cold PBS and were then lysed in RIPA lysis buffer (150 mM NaCl, 5 mM EDTA, 1% NP-40, 0.5% sodium deoxycholate, 0.1% SDS, 50 mM Tris, pH 8.0) with Roche protease inhibitor complete cocktail and phosphatase inhibitors (10 mM sodium fluoride, 10 mM sodium pyrophosphate, 1 mM sodium orthovanadate and 20 mM β-glycerophosphate). The total protein concentrations were determined by Bradford Protein Assay and 10-20 μg of protein was loaded onto 4-15% Tris-Glycine gradient gels (Biorad). After standard gel electrophoresis, the separated proteins were transferred to PVDF membrane by wet transfer. The immunoblots were then blocked for 1 hour in 5% skim milk in TBST or 5% BSA in TBST, according to manufacturer's instructions, before an overnight incubation at 4° C. with indicated antibodies and membranes. Membranes were then incubated with the appropriate horseradish peroxidase-conjugated secondary antibodies (1:5,000 dilution) for 1 h at room temperature and the bands were visualized using the Clarity Max Western ECL Substrate (Biorad) and the ChemiDoc Imaging System (Biorad). Signal was detected with ECL Western Blotting Substrate (Pierce) and X-ray film processed with a Konica SRX-101 X-ray film processor or captured by Bio-Rad's Chemidoc Imaging system.
WES Simple analysis was performed on WES system (ProteinSimple-Biotechne) according to the manufacturer's instructions. Total protein concentrations of cell lysates were determined by the Pierce BCA kit (Thermo Fisher). 3 μL of 0.3 μg/uL of the protein lysate was loaded onto a 12- to 230-kDa WES assay plate (ProteinSimple) where 300 nL sample was withdrawn through a capillary, subjected to electrophoretic separation of proteins by size, and followed by the simultaneous, HRP-based detection of proteins using the Anti-Rabbit Detection Module (Proteinsimple: #DM-001). The electropherograms were checked then the automatic peak detection was manually corrected if it was required.
A black check mark indicates efficacy of 30% to 70% or higher protein degradation.

SMILES: COc1ccc2c(c1)C(c1ccc(Cl)cc1)=N[C@@H](CC(=O)NCCNC(=O)c1cccc(B(O)O)c1)c1nnc(C)n1-2 [BRD-E02]
- Degradation of BRD4, combination with VHL ligand [drawing 442] (Table 3): ✓ (A black check mark indicates efficacy of 30% to 70% or higher protein degradation)

SMILES: COc1ccc2c(c1)C(c1ccc(Cl)cc1)=N[C@@H](CC(=O)NCCCNC(=O)c1cccc(B(O)O)c1)c1nnc(C)n1-2 [BRD-E04]
- Degradation of BRD4, combination with CRBN ligand [drawing 421]: ✓ (A black check mark indicates efficacy of 30% to 70% or higher protein degradation)
- Degradation of BRD4, combination with CRBN ligand [drawing 422]: ✓ (A black check mark indicates efficacy of 30% to 70% or higher protein degradation)
- Degradation of BRD4, combination with CRBN ligand [drawing 397]: ✓ (A black check mark indicates efficacy of 30% to 70% or higher protein degradation)

SMILES: COc1ccc2c(c1)C(c1ccc(Cl)cc1)=N[C@@H](CC(=O)NCCCCNC(=O)c1ccc(B(O)O)cc1)c1nnc(C)n1-2 [BRD-E05]
- Degradation of BRD4, combination with CRBN ligand [drawing 421]: ✓ (A black check mark indicates efficacy of 30% to 70% or higher protein degradation)
- Degradation of BRD4, combination with CRBN ligand [drawing 422]: ✓ (A black check mark indicates efficacy of 30% to 70% or higher protein degradation)

SMILES: COc1ccc2c(c1)C(c1ccc(Cl)cc1)=N[C@@H](CC(=O)NCCCCCNC(=O)c1ccc(B(O)O)cc1)c1nnc(C)n1-2 [BRD-E07]
- Degradation of BRD4, combination with CRBN ligand [drawing 422]: ✓ (A black check mark indicates efficacy of 30% to 70% or higher protein degradation)

SMILES: COc1ccc2c(c1)C(c1ccc(Cl)cc1)=N[C@@H](CC(=O)NCc1ccc(B(O)O)cc1)c1nnc(C)n1-2 [BRD-E09, (4-((2-((4S)-6-(4-chlorophenyl)-8-methoxy-1-methyl-4H-benzo[f][1,2,4]triazolo[4,3-a][1,4]diazepin-4-yl)acetamido)methyl)phenyl)boronic acid]
- Degradation of BRD4, combination with CRBN ligand [drawing 421]: ✓ (A black check mark indicates efficacy of 30% to 70% or higher protein degradation)
- Degradation of BRD4, combination with VHL ligand [drawing 442] (Table 3): ✓ (A black check mark indicates efficacy of 30% to 70% or higher protein degradation)

SMILES: COc1ccc2c(c1)C(c1ccc(Cl)cc1)=N[C@@H](CC(=O)NCc1cccc(B(O)O)c1)c1nnc(C)n1-2 [BRD-E10]
- Degradation of BRD4, combination with CRBN ligand [drawing 421]: ✓ (A black check mark indicates efficacy of 30% to 70% or higher protein degradation)
- Degradation of BRD4, combination with CRBN ligand [drawing 397]: ✓ (A black check mark indicates efficacy of 30% to 70% or higher protein degradation)
- Degradation of BRD4, combination with VHL ligand [drawing 441] (Table 3, aromatic 1,2-diol-containing VHL ligand drawn as drawing 441 (by the text apparently 8304)): ✓ (A black check mark indicates efficacy of 30% to 70% or higher protein degradation)

SMILES: COc1ccc2c(c1)C(c1ccc(Cl)cc1)=N[C@@H](CC(=O)NCCc1ccc(B(O)O)cc1)c1nnc(C)n1-2 [BRD-E14, (4-(2-(2-((4S)-6-(4-chlorophenyl)-8-methoxy-1-methyl-4H-benzo[f][1,2,4]triazolo[4,3-a][1,4]diazepin-4-yl)acetamido)ethyl)phenyl)boronic acid]
- Degradation of BRD4, combination with CRBN ligand [drawing 421]: ✓ (A black check mark indicates efficacy of 30% to 70% or higher protein degradation)
- Degradation of BRD4, combination with MDM2 ligand [drawing 431]: ✓ (A black check mark indicates efficacy of 30% to 70% or higher protein degradation)
- Degradation of BRD4, combination with VHL ligand [drawing 442] (Table 3): ✓ (A black check mark indicates efficacy of 30% to 70% or higher protein degradation)

SMILES: COc1ccc2c(c1)C(c1ccc(Cl)cc1)=N[C@@H](CC(=O)NCCNC(=O)Cc1ccc(B(O)O)cc1)c1nnc(C)n1-2 [BRD-E27, (4-(2-((2-(2-((4S)-6-(4-chlorophenyl)-8-methoxy-1-methyl-4H-benzo[f][1,2,4]triazolo[4,3-a][1,4]diazepin-4-yl)acetamido)ethyl)amino)-2-oxoethyl)phenyl)boronic acid]
- Degradation of BRD4, combination with CRBN ligand [drawing 421]: ✓ (A black check mark indicates efficacy of 30% to 70% or higher protein degradation)

SMILES: COc1ccc2c(c1)C(c1ccc(Cl)cc1)=N[C@@H](CC(=O)NCCNC(=O)Cc1cccc(B(O)O)c1)c1nnc(C)n1-2 [BRD-E38]
- Degradation of BRD4, combination with CRBN ligand [drawing 421]: ✓ (A black check mark indicates efficacy of 30% to 70% or higher protein degradation)

SMILES: CCNC(=O)C[C@@H]1N=C(c2ccc(Cl)cc2)c2cc(OCCOCCNC(=O)c3ccc(B(O)O)cc3)ccc2-n2c(C)nnc21 [BRD-E39]
- Degradation of BRD4, combination with CRBN ligand [drawing 397]: ✓ (A black check mark indicates efficacy of 30% to 70% or higher protein degradation)

SMILES: CCNC(=O)C[C@@H]1N=C(c2ccc(Cl)cc2)c2cc(OCCOCCOCCNC(=O)c3cccc(B(O)O)c3)ccc2-n2c(C)nnc21 [BRD-E42]
- Degradation of BRD4, combination with CRBN ligand [drawing 421]: ✓ (A black check mark indicates efficacy of 30% to 70% or higher protein degradation)

SMILES: CCNC(=O)C[C@@H]1N=C(c2ccc(Cl)cc2)c2cc(OCCOCCOCCOCCNC(=O)c3ccc(B(O)O)cc3)ccc2-n2c(C)nnc21 [BRD-E43]
- Degradation of BRD4, combination with CRBN ligand [drawing 421]: ✓ (A black check mark indicates efficacy of 30% to 70% or higher protein degradation)
- Degradation of BRD4, combination with CRBN ligand [drawing 422]: ✓ (A black check mark indicates efficacy of 30% to 70% or higher protein degradation)

SMILES: COc1ccc2c(c1)C(c1ccc(Cl)cc1)=N[C@@H](CC(=O)NCCOCCOCCNC(=O)c1ccc(B(O)O)cc1)c1nnc(C)n1-2 [BRD-E45]
- Degradation of BRD4, combination with CRBN ligand [drawing 422]: ✓ (A black check mark indicates efficacy of 30% to 70% or higher protein degradation)
- Degradation of BRD4, combination with VHL ligand [drawing 442] (Table 3): ✓ (A black check mark indicates efficacy of 30% to 70% or higher protein degradation)

SMILES: CCNC(=O)C[C@@H]1N=C(c2ccc(SCc3ccc(B(O)O)cc3)cc2)c2cc(OC)ccc2-n2c(C)nnc21 [BRD-E54]
- Degradation of BRD4, combination with VHL ligand [drawing 442] (Table 3): ✓ (A black check mark indicates efficacy of 30% to 70% or higher protein degradation)

SMILES: COc1ccc2c(c1)C(c1ccc(Cl)cc1)=N[C@@H](CC(=O)Nc1ccc(B(O)O)cc1)c1nnc(C)n1-2 [BRD-E74, (4-(2-((4S)-6-(4-chlorophenyl)-8-methoxy-1-methyl-4H-benzo[f][1,2,4]triazolo[4,3-a][1,4]diazepin-4-yl)acetamido)phenyl)boronic acid]
- Degradation of BRD4, combination with CRBN ligand [drawing 397]: ✓ (A black check mark indicates efficacy of 30% to 70% or higher protein degradation)
- Degradation of BRD4, combination with MDM2 ligand [drawing 431]: ✓ (A black check mark indicates efficacy of 30% to 70% or higher protein degradation)

SMILES: COc1ccc2c(c1)C(c1ccc(Cl)cc1)=N[C@@H](CC(=O)NCCNC(=O)c1ccc(O)c(O)c1)c1nnc(C)n1-2 [BRD-N01]
- Degradation of BRD4, combination with CRBN ligand [drawing 457]: ✓ (A black check mark indicates efficacy of 30% to 70% or higher protein degradation)

SMILES: COc1ccc2c(c1)C(c1ccc(Cl)cc1)=N[C@@H](CC(=O)NCCCCNC(=O)c1ccc(O)c(O)c1)c1nnc(C)n1-2 [BRD-N05]
- Degradation of BRD4, combination with CRBN ligand [drawing 457]: ✓ (A black check mark indicates efficacy of 30% to 70% or higher protein degradation)

SMILES: COc1ccc2c(c1)C(c1ccc(Cl)cc1)=N[C@@H](CC(=O)NCCCCNC(=O)c1cccc(O)c1O)c1nnc(C)n1-2 [BRD-N06]
- Degradation of BRD4, combination with CRBN ligand [drawing 457]: ✓ (A black check mark indicates efficacy of 30% to 70% or higher protein degradation)

SMILES: CCNC(=O)C[C@@H]1N=C(c2ccc(Cl)cc2)c2cc(OCCCCC(=O)Nc3ccc(O)c(O)c3)ccc2-n2c(C)nnc21 [BRD-N22, 5-(((4S)-6-(4-chlorophenyl)-4-(2-(ethylamino)-2-oxoethyl)-1-methyl-4H-benzo[f][1,2,4]triazolo[4,3-a][1,4]diazepin-8-yl)oxy)-N-(3,4-dihydroxyphenyl)pentanamide]
- Degradation of BRD4, combination with CRBN ligand [drawing 457]: ✓ (A black check mark indicates efficacy of 30% to 70% or higher protein degradation)

SMILES: COc1ccc2c(c1)C(c1ccc(Cl)cc1)=N[C@@H](CC(=O)NCCNC(=O)Cc1ccc(O)c(O)c1)c1nnc(C)n1-2 [BRD-N30]
- Degradation of BRD4, combination with CRBN ligand [drawing 457]: ✓ (A black check mark indicates efficacy of 30% to 70% or higher protein degradation)

SMILES: CCNC(=O)C[C@@H]1N=C(c2ccc(Cl)cc2)c2cc(OCCOCCNC(=O)c3ccc(O)c(O)c3)ccc2-n2c(C)nnc21 [BRD-N38, N-(2-(2-(((4S)-6-(4-chlorophenyl)-4-(2-(ethylamino)-2-oxoethyl)-1-methyl-4H-benzo[f][1,2,4]triazolo[4,3-a][1,4]diazepin-8-yl)oxy)ethoxy)ethyl)-3,4-dihydroxybenzamide]
- Degradation of BRD4, combination with CRBN ligand [drawing 457]: ✓ (A black check mark indicates efficacy of 30% to 70% or higher protein degradation)

SMILES: CCNC(=O)C[C@@H]1N=C(c2ccc(Cl)cc2)c2cc(OCCOCCOCCNC(=O)c3ccc(O)c(O)c3)ccc2-n2c(C)nnc21 [BRD-N40]
- Degradation of BRD4, combination with VHL ligand [drawing 465] (Table 6, aryl-boronic acid-containing VHL ligand drawn as drawing 465): ✓ (A black check mark indicates efficacy of 30% to 70% or higher protein degradation)
